# Experimental data as given in patent publication US20250213571A1, “TYK2 INHIBITORS AND USES THEREOF” (Alumis Inc., priority 2022, published 2025).
# Where two headings read alike, the source gives them in different places.
# Columns and labels:
# IFNa, PBMCs, p-STAT3 = assay: IFNa induced p-STAT3 in PBMCs; assay type: cell-based; settings: Homo sapiens, PBMC, IFNa stimulated PBMCs
# TYK2 JH1 = TYK2 JH1 (Homo sapiens (Human), UniProt P29597); assay: TYK2 JH1 binding (Kd, Table 2); settings: JH1 domain
# [1] = test system: INFα Induced pSTAT5 in Human PBMC; assay: INFα induced pSTAT5 in human PBMC; assay type: cell-based; settings: 0.25 h, human PBMCs, INFα 5000 units/ml 15 minutes, p-STAT5, read-out: IFNa, PBMCs, p-STAT5 (IC50)
# Method: Fresh Human PBMCs were resuspended in RPMI 1640 medium with 10% FBS. Cells were seeded in a round bottom 96-well plate at the concentration of 200,000 cells/well. A 10-point dilution series of test compound (top dose 10 uM, 1:5 dilution) was added to the well using the liquid dispenser (Tecan D300e) and incubated for 1 hour at 37 C. Then human INFα recombinant protein (R&D Systems) was added to the well at the final concentration of 5000 units/ml and incubated for 15 minutes at 37 C. Cell lysates were prepared and analyzed by Phospho STAT5 (Tyr693) Kit (Meso Scale Discovery) following manufacturer's protocol.
# For calculation of the inhibition rate, the relative pSTAT5 signal of each well=pSTAT5 signal of each well−the average pSTAT5 signal of baseline.
# The inhibition %=(the average pSTAT5 signal of INFα treatment wells−the relative of pSTAT5 signal in each compound containing well)/the average pSTAT5 signal of INFα treatment wells*100%
# The curve was plotted as the inhibition % (y-axis) vs. compounds concentration (x-axis) and is fitted with log(inhibitor) vs. normalized response—Variable slope by GraphPad Prism7.0.
# JAK1 JH2 = JAK1 JH2 (Homo sapiens (Human), UniProt P23458); assay: JAK1 JH2 binding (Kd, Table 2); settings: JH2 domain
# [2] = target: human TYK2 (JH2domain-pseudokinase) (Homo sapiens (Human), UniProt P29597); assay: TYK2 JH2 domain binding assay (KINOMEscan)
# Method: Binding constants for the compounds described herein against the JH2 domain were determined by the following protocol for a KINOMEscan® assay (DiscoveRx). A fusion protein of a partial length construct of human TYK2 (JH2domain-pseudokinase) (amino acids G556 to D888 based on reference sequence NP_003322.3) and the DNA binding domain of NFkB was expressed in transiently transfected HEK293 cells. From these HEK 293 cells, extracts were prepared in M-PER extraction buffer (Pierce) in the presence of Protease Inhibitor Cocktail Complete (Roche) and Phosphatase Inhibitor Cocktail Set II (Merck) per manufacturers' instructions. The TYK2 (JH2domain-pseudokinase) fusion protein was labeled with a chimeric double-stranded DNA tag containing the NFkB binding site fused to an amplicon for qPCR readout, which was added directly to the expression extract (the final concentration of DNA-tag in the binding reaction is 0.1 nM).
# Streptavidin-coated magnetic beads (Dynal M280) were treated with a biotinylated small molecule ligand for 30 minutes at room temperature to generate affinity resins the binding assays. The liganded beads were blocked with excess biotin and washed with blocking buffer (SeaBlock (Pierce), 1% BSA, 0.05% Tween 20, 1 mM DTT) to remove unbound ligand and to reduce nonspecific binding.
# The binding reaction was assembled by combining 16 μl of DNA-tagged kinase extract, 3.8 μl liganded affinity beads, and 0.18 μl test compound (PBS/0.05% Tween 20/10 mM DTT/0.1% BSA/2 μg/ml sonicated salmon sperm DNA)]. Extracts were used directly in binding assays without any enzyme purification steps at a ≥10,000-fold overall stock dilution (final DNA-tagged enzyme concentration <0.1 nM). Extracts were loaded with DNA-tag and diluted into the binding reaction in a two-step process. First extracts were diluted 1:100 in 1×binding buffer (PBS/0.05% Tween 20/10 mM DTT/0.1% BSA/2 […] sonicated salmon sperm DNA) containing 10 nM DNA-tag. This dilution was allowed to equilibrate at room temperature for 15 minutes and then subsequently diluted 1:100 in 1× binding buffer. Test compounds were prepared as 111× stocks in 100% DMSO. Kds were determined using an 11-point 3-fold compound dilution series with three DMSO control points. All compounds for Kd measurements were distributed by acoustic transfer (non-contact dispensing) in 100% DMSO. The compounds were then diluted directly into the assays such that the final concentration of DMSO was 0.9%. All reactions were performed in polypropylene 384-well plates. Each was a final volume of 0.02 mL. Assays were incubated with shaking for 1 hour at room temperature. Then the beads were pelleted and washed with wash buffer (1×PBS, 0.05% Tween 20) to remove displaced kinase and test compound. The washed based were resuspended in elution buffer (1 λPBS, 0.05% Tween […] non-biotinylated affinity ligand) and incubated at room temperature with shaking for 30 minutes. The kinase concentration in the eluates was measured by qPCR. qPCR reactions were assembled by adding 2.5 μL of kinase eluate to 7.5 μL of qPCR master mix containing […] amplicon primers and 0.15 μM amplicon probe. The qPCR protocol consisted of a 10 minute hot start at 95° C., followed by 35 cycles of 95° C. for 15 seconds, 60° C. for 1 minute.
# Test compounds were prepared as 111× stocks in 100% DMSO. Kds were determined using an 11-point 3-fold compound dilution series with three DMSO control points. All compounds for Kd measurements were distributed by acoustic transfer (non-contact dispensing) in 100% DMSO. The compounds were then diluted directly into the assays such that the final concentration of DMSO was 0.9%. The Kds were determined using a compound top concentration of 30,000 nM. Kd measurements were performed in duplicate.
# Binding constants (Kds) were calculated with a standard dose-response curve using the Hill equation: […]
# The Hill Slope was set to −1. […]
# JAK1 JH1 = JAK1 JH1 (Homo sapiens (Human), UniProt P23458); assay: JAK1 JH1 binding (Kd, Table 2); settings: JH1 domain
# JAK2 JH1 = JAK2 JH1 (Homo sapiens (Human), UniProt O60674); assay: JAK2 JH1 binding (Kd, Table 2); settings: JH1 domain
# JAK2 JH2 = JAK2 JH2 (Homo sapiens (Human), UniProt O60674); assay: JAK2 JH2 binding (Kd, Table 2); settings: JH2 domain
# JAK3 JH1 = JAK3 JH1 (Homo sapiens (Human), UniProt P52333); assay: JAK3 JH1 binding (Kd, Table 2); settings: JH1 domain
# [3] = from CNc1cc(Cl)nn2c(C(=O)O[C@H](C)COCc3cc(N)c4nnn(C)c4c3)cnc12; cn_pd bond; 14-membered ring; Pd2(dba)3/BINAP/Cs2CO3; dioxane; 27.5 mM; 16.0 h
# [4] = cn_pd bond, 14-membered ring
# JAK1 JH2, sequence (P23458 583-855): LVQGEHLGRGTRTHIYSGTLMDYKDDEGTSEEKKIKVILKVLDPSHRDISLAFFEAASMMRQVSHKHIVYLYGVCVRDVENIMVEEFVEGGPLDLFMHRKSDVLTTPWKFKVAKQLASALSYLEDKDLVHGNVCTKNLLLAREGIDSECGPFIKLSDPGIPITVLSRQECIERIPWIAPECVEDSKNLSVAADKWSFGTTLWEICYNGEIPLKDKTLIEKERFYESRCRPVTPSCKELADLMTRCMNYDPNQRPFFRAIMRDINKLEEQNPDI
# TYK2 JH1, sequence (P29597 897-1176): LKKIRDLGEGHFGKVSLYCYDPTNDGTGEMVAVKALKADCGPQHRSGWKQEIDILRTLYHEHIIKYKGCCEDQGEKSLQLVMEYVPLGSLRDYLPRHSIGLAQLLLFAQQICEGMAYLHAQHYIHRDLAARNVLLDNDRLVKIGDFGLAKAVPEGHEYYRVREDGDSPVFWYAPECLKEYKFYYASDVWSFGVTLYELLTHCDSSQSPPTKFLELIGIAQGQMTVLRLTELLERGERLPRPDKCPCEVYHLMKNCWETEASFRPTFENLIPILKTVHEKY
# human TYK2 (JH2domain-pseudokinase), sequence (P29597 556-888): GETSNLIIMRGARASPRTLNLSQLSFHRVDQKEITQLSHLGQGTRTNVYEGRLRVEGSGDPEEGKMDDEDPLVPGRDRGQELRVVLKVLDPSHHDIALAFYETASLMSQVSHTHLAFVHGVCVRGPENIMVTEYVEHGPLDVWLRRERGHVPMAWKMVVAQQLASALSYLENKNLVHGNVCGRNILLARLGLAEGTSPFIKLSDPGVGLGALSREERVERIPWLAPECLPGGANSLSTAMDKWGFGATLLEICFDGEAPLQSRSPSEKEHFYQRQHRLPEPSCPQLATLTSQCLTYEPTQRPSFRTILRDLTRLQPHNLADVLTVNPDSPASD
# JAK2 JH2, sequence (O60674 545-809): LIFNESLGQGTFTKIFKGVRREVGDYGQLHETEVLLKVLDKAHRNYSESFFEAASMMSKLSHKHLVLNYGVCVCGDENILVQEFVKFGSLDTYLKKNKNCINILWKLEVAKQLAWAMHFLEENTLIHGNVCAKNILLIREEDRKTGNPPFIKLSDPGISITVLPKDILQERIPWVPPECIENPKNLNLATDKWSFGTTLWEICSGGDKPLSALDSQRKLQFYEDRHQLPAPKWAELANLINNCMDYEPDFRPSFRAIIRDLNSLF
# JAK3 JH1, sequence (P52333 822-1111): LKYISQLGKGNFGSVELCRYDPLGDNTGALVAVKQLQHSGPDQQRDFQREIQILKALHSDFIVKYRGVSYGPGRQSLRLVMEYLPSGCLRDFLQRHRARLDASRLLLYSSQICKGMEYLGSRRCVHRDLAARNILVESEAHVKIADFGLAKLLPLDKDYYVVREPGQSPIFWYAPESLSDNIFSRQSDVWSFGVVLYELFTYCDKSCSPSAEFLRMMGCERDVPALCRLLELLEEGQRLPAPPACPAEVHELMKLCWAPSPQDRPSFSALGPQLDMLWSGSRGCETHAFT
# JAK2 JH1, sequence (O60674 849-1124): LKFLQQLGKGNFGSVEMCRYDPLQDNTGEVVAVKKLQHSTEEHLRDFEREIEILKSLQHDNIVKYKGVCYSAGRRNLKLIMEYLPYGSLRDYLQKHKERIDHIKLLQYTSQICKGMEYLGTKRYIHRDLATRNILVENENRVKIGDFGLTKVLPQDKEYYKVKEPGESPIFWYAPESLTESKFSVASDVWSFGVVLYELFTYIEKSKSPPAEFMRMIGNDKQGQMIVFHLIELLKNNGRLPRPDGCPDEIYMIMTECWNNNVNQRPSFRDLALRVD
# JAK1 JH1, sequence (P23458 875-1153): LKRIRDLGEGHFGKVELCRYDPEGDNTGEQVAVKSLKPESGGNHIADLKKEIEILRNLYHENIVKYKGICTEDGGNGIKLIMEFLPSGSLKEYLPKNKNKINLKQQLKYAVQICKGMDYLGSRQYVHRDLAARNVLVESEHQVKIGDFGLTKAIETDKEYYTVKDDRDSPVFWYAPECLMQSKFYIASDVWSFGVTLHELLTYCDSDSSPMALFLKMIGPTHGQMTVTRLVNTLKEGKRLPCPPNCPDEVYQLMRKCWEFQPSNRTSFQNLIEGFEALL
Compound,Kd (TYK2 JH1),Kd (JAK1 JH2),Kd [2],Kd (JAK1 JH1),Kd (JAK2 JH1),Kd (JAK2 JH2),Kd (JAK3 JH1),other results
CNc1cc2nn3c(cnc13)C(=O)N[C@H](CO)COCc1cc(c3nnn(C)c3c1)N2 [Compound 2],≥ 30 µM,0.01 to 1 µM,< 0.01 µM,,,,,"IC50 (IFNa, PBMCs, p-STAT3): ≥ 0.1 µM; IC50 [1]: < 0.05 µM"
"[2H]C1([2H])OC[C@@H](C)NC(=O)c2cnc3c(NC)cc(nn23)Nc2cc1cc1c2nnn1C [Compound 7, (7R,E)-3′,7-Dimethyl-1^8-(methylamino)-3^1H-5-oxa-2,8-diaza-1(6,3),3(4,6)-diimidazo[1,2-b]pyridazinacyclononaphan-9-one-4,4-d2]",1 to 10 µM,0.01 to 1 µM,< 0.01 µM,≥ 30 µM,≥ 30 µM,1 to 10 µM,10 to 30 µM,
"CNc1cc2nn3c(cnc13)C(=O)O[C@H](C)COCc1cc(c3nnn(C)c3c1)N2 [Compound 3, (7R,E)-3′,7-Dimethyl-1^8-(methylamino)-3^1H-5,8-dioxa-2-aza-1(6,3),3(4,6)-diimidazo[1,2-b]pyridazinacyclononaphan-9-one]",≥ 30 µM,1 to 10 µM,< 0.01 µM,,,,,"ring closure, isolated yield [3]: 33%"
Cc1nc2c(N)nc3cn2c1C(=O)N[C@H](C)COCc1cc(c2nnn(C)c2c1)N3 [Compound 74],,,0.01 to 1 µM,,,,,"ring closure, yield after HPLC ([4]; from Cc1nc2c(N)nc(Br)cn2c1C(=O)N[C@H](C)COCc1cc(N)c2nnn(C)c2c1, Pd2(dba)3/Xantphos/Cs2CO3, dioxane, 100.0 °C, 16.0 h): 6.2%"
CNc1cc2nc3c(cnn13)C(=O)N[C@H](C)COCc1cc(c3c(c1)nnn3C)N2 [Compound 37],≥ 30 µM,10 to 30 µM,< 0.01 µM,≥ 30 µM,≥ 30 µM,≥ 30 µM,≥ 30 µM,
Cc1nc2cnc3cn2c1C(=O)N[C@H](C)COCc1cc(c2nnn(C)c2c1)N3 [Compound 81],≥ 30 µM,≥ 30 µM,1 to 10 µM,,,,,"ring closure, yield after HPLC ([4]; from Cc1nc2cnc(Br)cn2c1C(=O)N[C@H](C)COCc1cc(N)c2nnn(C)c2c1, RuPhos Pd G3/Cs2CO3, dioxane, 80.0 °C): 20%"
"tert-butyl N-methyl-N-[(12R)-12-methyl-10-oxo-14-oxa-2,4,5,7,11,16-hexaazapentacyclo[13.6.2.2^(3,6.0^(5,9.0^(19,23]pentacosa-1(21),3,6,8,15,17,19,22,24-nonaen-24-yl]carbamate",,,,,,,,"ring closure, yield after HPLC ([4]; Pd2(dba)3/Xantphos/Cs2CO3, 1,4-dioxane, 50.0 mM, 80.0 °C): 60%"
COc1nc2cn3c(c(C)nc13)C(=O)N[C@H](C)COCc1cc(c3nnn(C)c3c1)N2 [Compound 72],,,0.01 to 1 µM,,,,,"ring closure, yield after HPLC ([4]; from COc1nc(Br)cn2c(C(=O)N[C@H](C)COCc3cc(N)c4nnn(C)c4c3)c(C)nc12, RuPhos Pd G3/Cs2CO3, 1,4-dioxane, 72.0 mM, 80.0 °C, 4.0 h): 21%"
CNc1cc2nc3c(cnn13)C(=O)N[C@H](C)COCc1cc(c3nn(C)nc3c1)N2 [Compound 34],≥ 30 µM,0.01 to 1 µM,< 0.01 µM,≥ 30 µM,≥ 30 µM,10 to 30 µM,≥ 30 µM,
CNc1nc2cn3c(c(C)nc13)C(=O)N[C@H](C)COCc1cc(c3nnn(C)c3c1)N2 [Compound 78],,,1 to 10 µM,,,,,"ring closure, yield after HPLC ([4]; from CNc1nc(Br)cn2c(C(=O)N[C@H](C)COCc3cc(N)c4nnn(C)c4c3)c(C)nc12, RuPhos Pd G3/Cs2CO3, 1,4-dioxane, 64.0 mM, 80.0 °C): 11.3%"
COc1nc2cn3c(cnc13)C(=O)N[C@H](C)COCc1cc(c3nnn(C)c3c1)N2 [Compound 79],≥ 30 µM,≥ 30 µM,1 to 10 µM,,,,,"ring closure, yield after HPLC ([4]; from COc1nc(Br)cn2c(C(=O)N[C@H](C)COCc3cc(N)c4nnn(C)c4c3)cnc12, Pd2(dba)3/Xantphos/Cs2CO3, 1,4-dioxane, 61.0 mM, 80.0 °C): 14%"
"CNc1cc2nn3c(cnc13)C(=O)N[C@H](C)COCc1cc(c3c(c1)ncn3C)N2 [Compound 8, (7R,E)-3′,7-Dimethyl-1^8-(methylamino)-3^1H-5-oxa-2,8-diaza-1(6,3)-imidazo[1,2-b] pyridazina-3(7,5)-benzo[d]imidazolacyclononaphan-9-one]",1 to 10 µM,0.01 to 1 µM,,≥ 30 µM,≥ 30 µM,1 to 10 µM,10 to 30 µM,
CNc1cc2nn3c(cnc13)C(=O)N[C@H](C)COCc1cc(c3nnn(C)c3c1)N2 [Compound 5],≥ 30 µM,1 to 10 µM,< 0.01 µM,≥ 30 µM,≥ 30 µM,10 to 30 µM,≥ 30 µM,"IC50 (IFNa, PBMCs, p-STAT3): < 0.05 µM; IC50 [1]: < 0.05 µM"
CNc1cc2nn3c(cnc13)C(=O)N[C@H](C)COCc1cc(c3nn(C)nc3c1)N2 [Compound 6],1 to 10 µM,0.01 to 1 µM,< 0.01 µM,≥ 30 µM,≥ 30 µM,1 to 10 µM,≥ 30 µM,"IC50 (IFNa, PBMCs, p-STAT3): < 0.05 µM; IC50 [1]: < 0.05 µM"
C[C@@H]1COCc2cc(c3nnn(C)c3c2)Nc2cn3c(cnc3c(N)n2)C(=O)N1 [Compound 73],,,0.01 to 1 µM,,,,,"ring closure, yield after HPLC ([4]; from C[C@H](COCc1cc(N)c2nnn(C)c2c1)NC(=O)c1cnc2c(N)nc(Br)cn12, RuPhos Pd G3 (0.5 eq)/Cs2CO3, dioxane, 64.0 mM, 100.0 °C, 16.0 h): 4.4%"
CNc1cc2nc3c(cnn13)C(=O)N[C@H](C)COCc1cc(c3nnn(C)c3c1)N2 [Compound 33],≥ 30 µM,1 to 10 µM,< 0.01 µM,≥ 30 µM,≥ 30 µM,≥ 30 µM,≥ 30 µM,
